Data as given in ChEMBL document CHEMBL3885881, “DrugMatrix”.

Organism: Rattus norvegicus
Assay type: toxicity, organism-based, Sprague-Dawley
Settings: in vivo, po, route oral GAVAGE, […]; for ALANINE AMINOTRANSFERASE / ALBUMIN / ALKALINE PHOSPHATASE / ASPARTATE AMINOTRANSFERASE / BLOOD UREA NITROGEN / CARBON DIOXIDE / CHOLESTEROL / CREATINE PHOSPHOKINASE / CREATININE / LACTATE DEHYDROGENASE / POTASSIUM / TOTAL BILIRUBIN / TOTAL PROTEIN / PHOSPHORUS / GLUCOSE / LIPASE: tissue Plasma
[1] = 0 mg/kg, 6 h, vehicle control, tissue Blood, dose level Control, time 0.25 day
[2] = 0 mg/kg, 6 h, vehicle control, dose level Control, time 0.25 day
[3] = 0 mg/kg, 24 h, vehicle control, tissue Blood, dose level Control, time 1 day
[4] = 0 mg/kg, 24 h, vehicle control, dose level Control, time 1 day
[5] = 100 mg/kg, 6 h, tissue Blood, dose level M1, time 0.25 day
[6] = 100 mg/kg, 6 h, dose level M1, time 0.25 day
[7] = 100 mg/kg, 24 h, tissue Blood, dose level M1, time 1 day
[8] = 100 mg/kg, 24 h, dose level M1, time 1 day
[9] = 860 mg/kg, 6 h, tissue Blood, dose level High, time 0.25 day
[10] = 860 mg/kg, 6 h, dose level High, time 0.25 day
[11] = 860 mg/kg, 24 h, tissue Blood, dose level High, time 1 day
[12] = 860 mg/kg, 24 h, dose level High, time 1 day

Description: DrugMatrix - Regimen: Single

CC(C)OC(=O)C(C)(C)Oc1ccc(C(=O)c2ccc(Cl)cc2)cc1 [FENOFIBRATE]
ABSOLUTE EOSINOPHIL [1]: 0 CELLS/uL
ABSOLUTE LYMPHOCYTE [1]: 8631 CELLS/uL
ABSOLUTE MONOCYTE [1]: 171.17 CELLS/uL
ABSOLUTE SEGMENTED NEUTROPHIL [1]: 1214.5 CELLS/uL
BASOPHIL [1]: 0%
EOSINOPHIL [1]: 0%
ERYTHROCYTE COUNT [1]: 5.42 x10E6/uL
HEMATOCRIT [1]: 34.7%
HEMOGLOBIN [1]: 13.67 G/DL
LYMPHOCYTE [1]: 86.17%
MEAN CORPUSCULAR HEMOGLOBIN CONCENTRATION [1]: 39.42 G/DL
MEAN CORPUSCULAR VOLUME [1]: 64.12 fL
NEUTROPHIL [1]: 12.17%
NUCLEATED RED BLOOD CELLS [1]: 0 /100WBC
ALANINE AMINOTRANSFERASE [2]: 61 u/L
ALBUMIN [2]: 4.67 G/DL
ALKALINE PHOSPHATASE [2]: 312.5 u/L
ASPARTATE AMINOTRANSFERASE [2]: 117.5 u/L
BLOOD UREA NITROGEN [2]: 8.67 mg/dL
CARBON DIOXIDE [2]: 26.33 mmol/L
CHOLESTEROL [2]: 72 mg/dL
CREATINE PHOSPHOKINASE [2]: 283.33 u/L
CREATININE [2]: 0.28 mg/dL
LACTATE DEHYDROGENASE [2]: 95.33 u/L
POTASSIUM [2]: 5.75 MEQ/L
TOTAL BILIRUBIN [2]: 0.3 mg/dL
TOTAL PROTEIN [2]: 5.43 G/DL
ABSOLUTE EOSINOPHIL [3]: 90.83 CELLS/uL
ABSOLUTE LYMPHOCYTE [3]: 14725.17 CELLS/uL
ABSOLUTE MONOCYTE [3]: 220 CELLS/uL
ABSOLUTE SEGMENTED NEUTROPHIL [3]: 1080.67 CELLS/uL
BASOPHIL [3]: 0%
EOSINOPHIL [3]: 0.67%
ERYTHROCYTE COUNT [3]: 5.3 x10E6/uL
HEMATOCRIT [3]: 33.4%
HEMOGLOBIN [3]: 13.4 G/DL
LYMPHOCYTE [3]: 91.17%
MEAN CORPUSCULAR HEMOGLOBIN CONCENTRATION [3]: 40.12 G/DL
MEAN CORPUSCULAR VOLUME [3]: 63.05 fL
NEUTROPHIL [3]: 6.67%
NUCLEATED RED BLOOD CELLS [3]: 0 /100WBC
ALANINE AMINOTRANSFERASE [4]: 69 u/L
ALBUMIN [4]: 4.33 G/DL
ALKALINE PHOSPHATASE [4]: 269 u/L
ASPARTATE AMINOTRANSFERASE [4]: 83.67 u/L
BLOOD UREA NITROGEN [4]: 14 mg/dL
CARBON DIOXIDE [4]: 29 mmol/L
CHOLESTEROL [4]: 66.67 mg/dL
CREATINE PHOSPHOKINASE [4]: 355 u/L
CREATININE [4]: 0.18 mg/dL
LACTATE DEHYDROGENASE [4]: 123.33 u/L
PHOSPHORUS [4]: 8.83 mg/dL
POTASSIUM [4]: 6.06 MEQ/L
TOTAL BILIRUBIN [4]: 0.2 mg/dL
TOTAL PROTEIN [4]: 5.72 G/DL
ABSOLUTE EOSINOPHIL [5]: 0 CELLS/uL
ABSOLUTE LYMPHOCYTE [5]: 15645.5 CELLS/uL
ABSOLUTE MONOCYTE [5]: 363.5 CELLS/uL
ABSOLUTE SEGMENTED NEUTROPHIL [5]: 1824.33 CELLS/uL
BASOPHIL [5]: 0%
EOSINOPHIL [5]: 0%
ERYTHROCYTE COUNT [5]: 5.47 x10E6/uL
HEMATOCRIT [5]: 34.7%
HEMOGLOBIN [5]: 13.57 G/DL
LYMPHOCYTE [5]: 88%
MEAN CORPUSCULAR HEMOGLOBIN CONCENTRATION [5]: 39.12 G/DL
MEAN CORPUSCULAR VOLUME [5]: 63.42 fL
NUCLEATED RED BLOOD CELLS [5]: 0 /100WBC
ALANINE AMINOTRANSFERASE [6]: 47.67 u/L
ALBUMIN [6]: 4.43 G/DL
ALKALINE PHOSPHATASE [6]: 355.83 u/L
ASPARTATE AMINOTRANSFERASE [6]: 100.33 u/L
BLOOD UREA NITROGEN [6]: 8.17 mg/dL
CARBON DIOXIDE [6]: 21.33 mmol/L
CHOLESTEROL [6]: 77.33 mg/dL
CREATINE PHOSPHOKINASE [6]: 740.17 u/L
CREATININE [6]: 0.18 mg/dL
LACTATE DEHYDROGENASE [6]: 327.83 u/L
PHOSPHORUS [6]: 12.3 mg/dL
TOTAL BILIRUBIN [6]: 0.22 mg/dL
TOTAL PROTEIN [6]: 5.92 G/DL
ABSOLUTE EOSINOPHIL [7]: 24.83 CELLS/uL
ABSOLUTE LYMPHOCYTE [7]: 12569.67 CELLS/uL
ABSOLUTE MONOCYTE [7]: 401.83 CELLS/uL
ABSOLUTE SEGMENTED NEUTROPHIL [7]: 920.33 CELLS/uL
BASOPHIL [7]: 0%
EOSINOPHIL [7]: 0.17%
ERYTHROCYTE COUNT [7]: 4.96 x10E6/uL
HEMATOCRIT [7]: 32.78%
HEMOGLOBIN [7]: 13.08 G/DL
LYMPHOCYTE [7]: 90.5%
MEAN CORPUSCULAR HEMOGLOBIN [7]: 26.38 pg
MEAN CORPUSCULAR HEMOGLOBIN CONCENTRATION [7]: 39.95 G/DL
MEAN CORPUSCULAR VOLUME [7]: 66.03 fL
NEUTROPHIL [7]: 6.67%
NUCLEATED RED BLOOD CELLS [7]: 0.33 /100WBC
ALANINE AMINOTRANSFERASE [8]: 74.83 u/L
ALBUMIN [8]: 4.45 G/DL
ALKALINE PHOSPHATASE [8]: 321.17 u/L
ASPARTATE AMINOTRANSFERASE [8]: 86.17 u/L
BLOOD UREA NITROGEN [8]: 13 mg/dL
CARBON DIOXIDE [8]: 30.83 mmol/L
CHOLESTEROL [8]: 42.83 mg/dL
CREATINE PHOSPHOKINASE [8]: 282.83 u/L
CREATININE [8]: 0.19 mg/dL
GLUCOSE [8]: 147.17 mg/dL
LIPASE [8]: 9.17 u/L
TOTAL BILIRUBIN [8]: 0.15 mg/dL
TOTAL PROTEIN [8]: 5.55 G/DL
ABSOLUTE EOSINOPHIL [9]: 0 CELLS/uL
ABSOLUTE LYMPHOCYTE [9]: 9866.33 CELLS/uL
ABSOLUTE MONOCYTE [9]: 201 CELLS/uL
ABSOLUTE SEGMENTED NEUTROPHIL [9]: 1482.67 CELLS/uL
BASOPHIL [9]: 0%
EOSINOPHIL [9]: 0%
ERYTHROCYTE COUNT [9]: 5.53 x10E6/uL
HEMATOCRIT [9]: 35.82%
HEMOGLOBIN [9]: 14.02 G/DL
LYMPHOCYTE [9]: 85%
MEAN CORPUSCULAR HEMOGLOBIN CONCENTRATION [9]: 39.15 G/DL
MEAN CORPUSCULAR VOLUME [9]: 64.97 fL
NEUTROPHIL [9]: 13.17%
NUCLEATED RED BLOOD CELLS [9]: 0 /100WBC
ALANINE AMINOTRANSFERASE [10]: 53.5 u/L
ALBUMIN [10]: 4.48 G/DL
ALKALINE PHOSPHATASE [10]: 282.5 u/L
ASPARTATE AMINOTRANSFERASE [10]: 93.33 u/L
BLOOD UREA NITROGEN [10]: 9 mg/dL
CARBON DIOXIDE [10]: 26 mmol/L
CHOLESTEROL [10]: 64 mg/dL
CREATINE PHOSPHOKINASE [10]: 406.33 u/L
CREATININE [10]: 0.16 mg/dL
LACTATE DEHYDROGENASE [10]: 198.83 u/L
TOTAL BILIRUBIN [10]: 0.2 mg/dL
TOTAL PROTEIN [10]: 6.02 G/DL
ABSOLUTE EOSINOPHIL [11]: 43 CELLS/uL
ABSOLUTE LYMPHOCYTE [11]: 12968.67 CELLS/uL
ABSOLUTE MONOCYTE [11]: 388.33 CELLS/uL
ABSOLUTE SEGMENTED NEUTROPHIL [11]: 1900 CELLS/uL
BASOPHIL [11]: 0%
EOSINOPHIL [11]: 0.33%
ERYTHROCYTE COUNT [11]: 5.77 x10E6/uL
HEMATOCRIT [11]: 35.63%
HEMOGLOBIN [11]: 14.08 G/DL
LYMPHOCYTE [11]: 85.17%
MEAN CORPUSCULAR HEMOGLOBIN CONCENTRATION [11]: 39.53 G/DL
MEAN CORPUSCULAR VOLUME [11]: 61.83 fL
NEUTROPHIL [11]: 12%
NUCLEATED RED BLOOD CELLS [11]: 0 /100WBC
ALANINE AMINOTRANSFERASE [12]: 115.33 u/L
ALBUMIN [12]: 4.42 G/DL
ALKALINE PHOSPHATASE [12]: 359 u/L
ASPARTATE AMINOTRANSFERASE [12]: 123.33 u/L
BLOOD UREA NITROGEN [12]: 10.33 mg/dL
CARBON DIOXIDE [12]: 27.83 mmol/L
CHOLESTEROL [12]: 51.5 mg/dL
CREATINE PHOSPHOKINASE [12]: 497 u/L
CREATININE [12]: 0.24 mg/dL
GLUCOSE [12]: 134.17 mg/dL
LACTATE DEHYDROGENASE [12]: 204.83 u/L
LIPASE [12]: 9 u/L
POTASSIUM [12]: 5.95 MEQ/L
TOTAL BILIRUBIN [12]: 0.22 mg/dL
TOTAL PROTEIN [12]: 5.72 G/DL
